Results from US12053442B2, “Methods and compositions for neuroprotection” (The Feinstein Institutes for Medical Research, priority 2020, dated 2024).

Legend:
[1] = ESI-MS evaluation of active cocktail components (stability, molecular interaction); type: physicochemical; conditions: ESI-MS after ethyl acetate extraction (FIG. 6)
Protocol: Then the molecular mass of the extracted components was analyzed by electrospray ionization mass spectrometry (ESI-MS) (FIG. 6). […] Then the preparation was centrifuged at 10 000 g for 2 min at room temperature. The top layer (ethyl acetate) was then separated and transferred to a new vial. Another […] ethyl acetate was added into the bottom layer, and the extraction was repeated. The combined organic phase was dried with nitrogen gas. The residue was reconstituted in 500 μL methanol, vortexed for 10 s, and centrifuged at 13 000 g for 2 min. The final extract was transferred into a polypropylene vial. Then 30 μL of the final extract was injected and analyzed on a LTQ XL™ Linear Ion Trap Mass Spectrometer (Thermo Fisher Scientific, Waltham, MA), and the data was analyzed using Xcalibur 3.1 (Thermo Fisher Scientific, Waltham, MA).

[2] = Solubility in water during cocktail formulation; type: physicochemical; conditions: formulation NWH-1
[3] = test system: control and CA rats; experiment: Cocktail development trials to assess survival benefit (Table 9); type: in vivo, rat; conditions: reason for removal from the cocktail
Protocol: Our goal was to provide the most benefit with the least number of agents in a single concoction. […] This information can aid in selecting agents that can be appropriately and practically combined. […] Each drug, individually and in various combinations, was administered to normal rats (n=3) to determine any potential adverse effects, such as immediate death.

Compound | Stability of drug in the final cocktail formulation by mass spectra [1] | other results
CN(C)C(=N)N=C(N)N [metformin, Metformin] | intact and stable | –
CC(=O)N[C@@H](CS)C(=O)O [N-acetyl cysteine] | intact and stable | –
C/C(=C(\CCOC(=O)C(C)C)SS/C(CCOC(=O)C(C)C)=C(/C)N(C=O)Cc1cnc(C)nc1N)N(C=O)Cc1cnc(C)nc1N [sulbutiamine, Sulbutiamine] | – | Solubility in water [2]: insoluble in
O=C1O[C@H]([C@@H](O)CO)C(O)=C1O [vitamin C, ascorbic acid] | intact and stable | –
Nc1ncnc2c1ncn2[C@@H]1O[C@H](COP(=O)([O-])OP(=O)(O)OP(=O)(O)O)[C@@H](O)[C@H]1O.[Cl-].[Mg+2] [ATP-magnesium chloride, adenosine triphosphate-magnesium chloride] | – | Adverse effect seen in preliminary trials [3]: hypotensive effect
CC1=NN(c2ccccc2)C(=O)C1 [edaravone, Edaravone] | intact and stable | –
COC1=C(OC)C(=O)C(C/C=C(\C)CC/C=C(\C)CC/C=C(\C)CC/C=C(\C)CC/C=C(\C)CC/C=C(\C)CC/C=C(\C)CC/C=C(\C)CC/C=C(\C)CCC=C(C)C)=C(C)C1=O [CoQ10, Coenzyme Q10] | – | Solubility in water [2]: insoluble in
N=C(N)NC(=O)c1cnn(-c2cccc3ncccc23)c1C1CC1 [zoniporide, Zoniporide] | intact and stable | –
